Measured values as given in patent US6693123B2 (University of Pittsburgh, priority 1995, dated 2004).
Where a name gives a salt, the structure may show the parent alone.

molecular target: T1, Rat brain protein farnesyltransferase (Rattus norvegicus, UniProt Q02293+Q04631); test: In vitro inhibition of protein farnesyltransferase, Amersham scintillation proximity assay with biotin-K Ras B fragment; type: biochemical; conditions: Inhibition of farnesyltransferase; compound at 1 × 10^−5 M (Table 1)
T1 construct: The enzyme is purified according to Reiss, Y., et al., Cell, 62: 81-88 (1990), utilizing steps one through three; from tissue; host or cells: rat brain

inhibition at 10 µM [%] | SMILES
> 50 | CSCC[C@H](NC(=O)c1ccc(NCc2cnc(-c3ccccc3)[nH]2)cc1-c1ccccc1)C(=O)O [Example 382, 4-[N-(1-H-2-Phenylimidazole-4-yl)methylamino-2-phenylbenzoyl]-methionine]
> 50 | CSCC[C@H](NC(=O)c1ccc(NCc2nc[nH]c2C)cc1-c1ccccc1)C(=O)O [Example 383, 4-[N-(5-Methyl-1-H-imidazole-4-yl)-methylene-(amino-2-phenylbenzol)]methionine]
> 50 | CC(C)C[C@H](NC(=O)c1ccc(NCc2c[nH]cn2)cc1-c1ccccc1)C(=O)O [Example 387, 4-[N-(1H-Imidazol-4-yl)methylamino-2-phenylbenzoyl]leucine]
> 50 | CC(C)C[C@H](NC(=O)c1ccc(NCc2cnc[nH]2)cc1-c1cccc2ccccc12)C(=O)O [Example 388, 4-[N-(1H-Imidazol-4-yl)methylamino-2-(1-naphthyl)benzoyl]leucine]
> 50 | CC(C)C[C@H](NC(=O)c1ccc(NCc2cccnc2)cc1-c1ccccc1)C(=O)O [Example 390, 5-[N-(3-Pyridinyl)methylamino-2-phenylbenzoyl]leucine]

same assay, conditions: Inhibition of farnesyltransferase; compound at 1 × 10^−6 M (Table 2)

SMILES | % inhibition at 1 × 10^−6 M [%]
CSCC[C@H](NC(=O)c1ccc(NC(=O)c2cnccc2C(F)(F)F)cc1-c1ccccc1C)C(=O)[O-].[Li+] [Example 481, N-[4-N-(4-Trifluoromethylnicotinoyl)amino-2-(2-methylphenyl)benzoyl]methionine Lithium Salt] | 95
CSCC[C@H](NC(=O)c1ccc(CN(C(=O)c2ccccc2)c2cccnc2)cc1-c1ccccc1C)C(=O)O [Example 569, N-[4-N-Benzoyl-N-pyrid-3-ylaminomethyl-2-(2-methylphenyl)benzoyl]methionine] | 91

same assay, conditions: Inhibition of farnesyltransferase; compound at 1 × 10^−6 M (Table 2); read-out: % inhibition at 1 × 10^−6 M

inhibition at 1 µM [%] | SMILES
72 | CSCC[C@H](NC(=O)c1cc(-c2ccc(C)cc2)c(COc2cccnc2)cc1-c1ccccc1C)C(=O)O [Example 343]
95 | CSCC[C@H](NC(=O)c1cc(Cc2ccccc2)c(COc2cccnc2)cc1-c1ccccc1C)C(=O)O [Example 344]
91 | CSCC[C@H](NC(=O)c1cc(-c2cc(Cl)cc(Cl)c2)c(COc2cccnc2)cc1-c1ccccc1C)C(=O)O [Example 345]
98 | CSCC[C@H](NC(=O)c1cc(-c2cccs2)c(COc2cccnc2)cc1-c1ccccc1C)C(=O)O [Example 346]
> 50 | CSCC[C@H](NC(=O)c1ccc(NCc2ncc[nH]2)cc1-c1ccccc1C)C(=O)O [Example 386, 4-[N-(1-H-Imidazole-2-yl)methylamino-2-(2-methylphenyl)benzoyl]methionine]
98 | CSCC[C@H](NC(=O)c1ccc(CN(Cc2ccccc2)c2cccnc2)cc1-c1ccccc1C)C(=O)O [Example 407, [4-(N-Benzyl-N-3-pyridylaminomethyl)-2-(2-methylphenyl)benzoyl]methionine]
41 | Cc1ccccc1-c1cc(/C=C/c2cnc3ccccc3c2)ccc1C(=O)N[C@@H](CC[S+](C)[O-])C(=O)O (stereo partly shown) [Example 488]
98 | CSCC[C@H](NC(=O)c1ccc(CN(Cc2ccccc2)c2cccnc2)cc1-c1ccccc1C)C(=O)OCOC(=O)C(C)(C)C [Example 500, Pivaloyloxymethyl N-[4-N-Benzyl-N-pyridin-3-ylaminomethyl-2-(2-methylphenyl)benzoyl]methionine]
84 | CCN(CC)C(=O)COC(=O)[C@H](CCSC)NC(=O)c1ccc(CN(Cc2ccccc2)c2cccnc2)cc1-c1ccccc1C [Example 501, N,N-Diethylaminocarbonylmethyl N-[4-N-benzyl-N-pyridin-3-ylaminomethyl-2-(2-methylphenyl)benzoyl]methionine]
35 | CSCC[C@H](NC(=O)c1ccc(/C=C/c2cccnc2)cc1-c1ccccc1C)C(N)=O [Example 796, N-[4-(2-Pyrid-3-ylethen-1-yl)-2-(2-methylphenyl)benzoyl]methioninamide]
35 | CSCC[C@H](NC(=O)c1ccc(/C=C/c2cccnc2)cc1-c1ccccc1C)C(=O)NC(=O)c1ccccc1 [Example 797, Benzoyl N-[4-(2-Pyrid-3-ylethen-1-yl)-2-(2-methylphenyl)benzoyl]methioninamide]

SMILES | inhibition at 1 µM [%]
CSCC[C@H](NC(=O)c1ccc(CN(Cc2ccccc2)c2cccnc2)cc1-c1ccccc1C)C(=O)OCOC(C)=O [Example 499, Acetoxymethyl N-[4-N-Benzyl-N-pyridin-3-ylaminomethyl-2-(2-methylphenyl)benzoyl]methionine] | 98

same assay, conditions: Inhibition of farnesyltransferase; compound at 1 × 10^−7 M (Table 3); read-out: % inhibition at 1 × 10^−7 M

inhibition at 0.1 µM [%] | SMILES
96 | CSCC[C@H](NC(=O)c1ccc(/C=C/c2cnccc2C2(O)CCCCC2)cc1-c1ccccc1C)C(=O)O [Example 482, N-[4-(2-(4-Cyclohexan-1-ol-1-yl)-pyrid-3-ylethen-1-yl)-2-(2-methylphenyl)benzoyl]methionine Lithium Salt]
95 | CSCC[C@H](NC(=O)c1ccc(/C=C/c2cnccc2C(=O)c2ccccc2)cc1-c1ccccc1C)C(=O)O [Example 483, N-[4-(2-(4-Benzoyl)pyrid-3-ylethen-1-yl)-2-(2-methylphenyl)benzoyl]methionine Lithium Salt]
97 | CSCC[C@H](NC(=O)c1ccc(/C=C/c2cnccc2C(O)c2ccccc2)cc1-c1ccccc1C)C(=O)O (stereo partly drawn) [Example 484, N-[4-(2-(4-α-Hydroxybenzyl)pyrid-3-ylethen-1-yl)-2-(2-methylphenyl)benzoyl]methionine Lithium Salt]
96 | CSCC[C@H](NC(=O)c1ccc(CCc2cnccc2C(O)c2ccccc2)cc1-c1ccccc1C)C(=O)O (stereo partly drawn) [Example 485, N-[4-(2-(4-α-Hydroxybenzyl)pyrid-3-ylethyl)-2-(2-methylphenyl)benzoyl]methionine Lithium Salt]
97 | CSCC[C@H](NC(=O)c1ccc(/C=C/c2cnccc2C(O)C2CCCCC2)cc1-c1ccccc1C)C(=O)O (stereo partly shown) [Example 486, N-[4-(2-(4-(1-Cyclohexyl)hydroxmethyl)pyrid-3-ylethen-1-yl)-2-(2-methylphenyl)benzoyl]methionine Lithium Salt]
92 | CSCC[C@H](NC(=O)c1ccc(CN(c2cccnc2)S(=O)(=O)c2ccccc2)cc1-c1ccccc1C)C(=O)O [Example 570, N-[4-N-Phenylsulfonyl-N-pyrid-3-ylaminomethyl-2-(2-methylphenyl)benzoyl]methionine]
97 | CSCC[C@@H](C(=O)O)N(C)C(=O)c1ccc(CN(Cc2ccccc2)c2cccnc2)cc1-c1ccccc1C [Example 602, N-[4-(N-Benzyl-N-pyrid-3-ylaminomethyl)-2-(2-methylphenyl)benzoyl]-N-methylmethionine]

same assay, conditions: Inhibition of farnesyltransferase; compound at 1 × 10^−8 M (Table 4); read-out: % inhibition at 1 × 10^−8 M

inhibition at 0.01 µM [%] | SMILES
91 | CSCC[C@H](NC(=O)c1ccc(NCc2c[nH]cn2)cc1-c1ccccc1C)C(=O)O [Example 384, 4-[N-(1-H-Imidazole-4-yl)methylamino-2-(2-methylphenylbenzoyl)]methionine]
50 | COc1ccccc1-c1cc(NCc2cnc[nH]2)ccc1C(=O)N[C@@H](CC(C)C)C(=O)O [Example 397]
66 | CSCC[C@H](NC(=O)c1ccc(COc2cccnc2)cc1-c1ccccc1)C(=O)NS(=O)(=O)N1CCN(C)CC1 [Example 401, [4-(3-Pyridyloxymethyl)-2-phenylbenzoyl]methionine 4-Methylpiperazinesulfonimide]
> 95 | CSCC[C@H](NC(=O)c1ccc(CN(CC2CCCCC2)c2cccnc2)cc1-c1ccccc1C)C(=O)O [Example 408]
84 | CSCC[C@H](NC(=O)c1ccc(CN(Cc2ccccc2)c2cccnc2)cc1-c1ccccc1C(F)(F)F)C(=O)O [Example 409, [4-(N-Benzyl-N-3-pyridylaminomethyl)-2-(2-trifluoromethylphenyl)benzoyl]methionine]
94 | CSCC[C@H](NC(=O)c1ccc(CN(Cc2ccccc2)c2cncc(F)c2)cc1-c1ccccc1C)C(=O)O [Example 410, [4-(N-Benzyl-N-3-(5-fluorolpyridyl)aminomethyl)-2-(2-methylphenyl)benzoyl]methionine]
94 | CSCC[C@H](NC(=O)c1ccc(COc2cccnc2)cc1-c1ccccc1)C(=O)NS(=O)(=O)N1CCSCC1 [Example 603, Thiomorpholinesulfonyl N-2-[4-(Pyrid-3-yloxymethyl)-2-phenylbenzoyl]amino-4-methylthiobutanamide]
95 | CC[C@H](NC(=O)c1ccc(COc2cccnc2)cc1-c1ccccc1)C(=O)O [Example 760, (2S)-2-N-[4-(3-Pyridyloxymethyl)-2-phenylbenzoyl]aminobutanoic Acid]

same assay, conditions: read-out: % inhibition at 1 × 10^−6 M

SMILES | inhibition at 1 µM [%]
CSCC[C@H](NC(=O)c1cc(I)c(COc2cccnc2)cc1-c1ccccc1C)C(=O)O [Example 347] | 95
CSCC[C@H](NC(=O)Nc1ccc(COc2cccnc2)cc1-c1ccccc1)C(=O)O [Example 348, [4-(3-Pyridyloxymethyl)-2-(phenyl)phenylaminocarbonyl]methionine] | 66
CSCC[C@H](NC(=O)c1ccc(C(=O)N(Cc2ccccc2)c2cccnc2)cc1-c1ccccc1C)C(=O)O [Example 451, N-[4-(N-3-Pyridyl-N-benzyl)carbonyl-2-(2-methylphenyl)benzoyl]methionine] | 85
CNCCc1cnc[nH]1 [Example 722] | 96

same assay, conditions: read-out: % inhibition at 1 × 10^−7 M

SMILES | inhibition at 0.1 µM [%]
CSCC[C@H](NC(=O)c1ccc(CCc2cncc3ccccc23)cc1-c1ccccc1C)C(=O)O [Example 492, N-[4-(2-Isoquinolin-4-ylethyl)-2-(2-methylphenyl)benzoyl]methionine Lithium Salt] | 95
CSCC[C@H](NC(=O)c1ccc(CCc2cncc(Cc3ccccc3)c2)cc1-c1ccccc1C)C(=O)O [Example 799, Lithium Salt] | 96
